Experiments:
[1] = tested on: WM983B human melanoma cell line; test: In vitro antiproliferative activity, MTT assay; format: cell-based; details: for IC50: MTT assay, 0.8–100 μM in serum-free medium 24 h, then 48 h culture, mean ± SD of two or three independent experiments; for Relative Potency: ratio of IC50 values of free Dau and conjugate
Excerpt: (§1) The following cell cultures were used for the biological evaluation of the synthetic melanoma-specific peptide–drug (Dau–α-MSH) conjugates: A2058 (human skin melanoma, CVCL_1059), M24 (human metastatic skin melanoma, CVCL_D032), OCM-1 (human ocular choroidal melanoma-1, CVCL_6934), OCM-3 (human ocular choroidal melanoma-3, CVCL_6937), WM983A (human metastatic skin melanoma, CVCL_6808), WM983B (human metastatic skin melanoma CVCL_6809), SK-MEL-202 (human skin melanoma, ATCC HTB-68) and B16 (mouse melanoma, ATCC: CRL-6475). Cells were maintained in RPMI-1640 (Lonza, Basel, Switzerland), supplied with 10% FBS (fetal bovine serum; BioSera, Nuaille, France), L-glutamine, and 1% penicillin–streptomycin (from 10 000 units penicillin and 10 mg streptomycin/mL, Gibco, Dublin, Ireland) at 37 °C in a 5% CO2 atmosphere. No mycoplasma contamination was detected in the cell cultures.
(§2) The in vitro cytostatic effect of Dau–α-MSH conjugates was determined by two different assays. The full-length Dau–α-MSH conjugates were investigated by MTT assay using human and murine melanoma cell cultures. For determination of the cytostatic effect of these conjugates, the cells were treated with the compounds at 0.8–100 μM concentration range dissolved in the corresponding serum-free media for 24 h. After incubation, the treating solutions were removed, the cells were washed two times with serum-free medium and cultured for 48 h in the appropriate serum-containing cell culture medium. On the fourth day, the MTT assay was carried out to determine the IC50 values of the compounds. IC50 is the concentration that inhibits cell proliferation by 50%. Nonlinear regression analysis was performed with Prism 6 software (GraphPad, La Jolla, CA, USA) to generate sigmoidal dose–response curves, from which the 50% inhibitory concentration (IC50) values of the compounds were calculated and presented as micromolar (µM) units. The experiments were done in triplicate, and each experiment was repeated twice.

[2] = tested on: M24 human melanoma cell line; test: In vitro antiproliferative activity, MTT assay; format: cell-based; details: for IC50: MTT assay, 0.8–100 μM in serum-free medium 24 h, then 48 h culture, mean ± SD of two or three independent experiments; for Relative Potency: ratio of IC50 values of free Dau and conjugate
Excerpt: as §1, §2

[3] = tested on: A2058 human melanoma cell line; test: In vitro antiproliferative activity, MTT assay; format: cell-based; details: for IC50: MTT assay, 0.8–100 μM in serum-free medium 24 h, then 48 h culture, mean ± SD of two or three independent experiments; for Relative Potency: ratio of IC50 values of free Dau and conjugate
Excerpt: as §1, §2

[4] = tested on: B16 murine melanoma cell line; test: In vitro antiproliferative activity, MTT assay; format: cell-based, mouse; details: for IC50: MTT assay, 0.8–100 μM in serum-free medium 24 h, then 48 h culture, mean ± SD of two or three independent experiments; for Relative Potency: ratio of IC50 values of free Dau and conjugate
Excerpt: as §1, §2

[5] = tested on: OCM-1 human uveal melanoma tumor in male NOD-SCID mice; test: In vivo tumor growth inhibition, OCM-1 xenograft; parameters: species or system mouse
Description: In the next experiment, the murine xenograft melanoma model establishment studies were performed using 8–12-week-old male NOD-SCID mice. For selection of the most suitable tumor model, three cell lines were then inoculated subcutaneously, OCM-1, SK-MEL-202, and WM983A. Cells were injected in a 0.1 mL RPMI-1640 basic medium in a concentration of 1.5·× 10^6 cells/mL, and the tumor growth and weight of mice were monitored 2–3 times per week. Subsequently, the antitumor effects of the Dau–α-MSH conjugates were determined in a mouse xenograft melanoma model selected as described above. Once the tumor volume reached 60 mm^3, mice were randomized and assigned to different groups for each treatment: 0.9% saline as a control, free daunomycin, Conj2 and Conj4. Treatments were injected intraperitoneally every fifth day, three times in total (daunomycin dosage of 5 mg/kg in case of Conj2, 10 mg/kg for Conj4, respectively, which was determined based on the toxicity tests, and 1 mg/kg were used for free drug–MTD). The weight and tumor size of mice were monitored during the whole experiment. On Day 33, mice were euthanized, and the primary tumor, heart, lung, liver, and spleen were harvested and stored in 4% formalin (Molar Chemicals, Halásztelek, Hungary). Liver weight was measured for the calculation of the toxicity of conjugates and daunomycin.

[6] = tested on: subcutaneous B16 murine melanoma in C57BL/6 male mice; test: In vivo antitumor effect, subcutaneous B16 melanoma allograft; details: for Increase of animal bodyweight at the end of the experiment in comparison to the start: conjugates 10 mg Dau content/kg i.p. days 9, 13, 15, 17, free Dau 1 mg/kg days 9, 17; for Tumor growth inhibition based on tumor weight, in comparison to the control group / Animal body weight (Table S1) / Tumor weigh in % (Table S1) / Tumor volume in % (Table S1) / Tumor volume in mm3 (Table S1): conjugates 10 mg Dau content/kg; for Tumor growth inhibition based on tumor weight, in comparison to the control group / Tumor volume in percentage (start set as 100%) increased in comparison to the control group: free Dau 1 mg/kg i.p.; for Animal body weight (Table S1): change at end compared to start; for Animal body weight (Table S1) / Tumor weigh in % (Table S1): minus = decrease; for Tumor weigh in % (Table S1) / Tumor volume in % (Table S1) / Tumor volume in mm3 (Table S1): change compared to control group; for Tumor volume in % (Table S1) / Tumor volume in mm3 (Table S1): minus = inhibition; for Tumor volume in percentage (start set as 100%) increased in comparison to the control group: end of experiment, Conj1 10 mg Dau content/kg
Description: In the first experiment, B16 murine melanoma cells were subcutaneously (s.c.) injected into side of the latero-abdominal region of 35 C57BL/6 male mice (20–28 g), which murine strain is syngeneic for the B16 melanoma tumor cell line [59, 60], 6.5 ×·10^5 cells in a volume of 200 µL M199 medium was inoculated per animal. Mice were randomized in a stratified procedure considering two main factors. The primary factor was to obtain groups with the most equal tumor sizes, the secondary factor was to have groups in which the weight of mice are the most equal. The treatment started 9 days after cell inoculation when average tumor volume was 30 mm^3. Compounds were dissolved in saline solution (Teva, Debrecen, Hungary), and administered via i.p. injection in a volume of 0.1 mL per 10 g of bodyweight. […] Animal weight and tumor volumes were measured initially when the treatment started and at periodic intervals following treatment. A digital caliper was used to measure the longest (a) and the shortest diameter (b) of a given tumor. The tumor volume was calculated using the formula V = ab^2 × π/6, whereby a and b represent the measured parameters (length and width). Termination of the experiment was 20 days after cell inoculation, i.e., 12 days after treatment started, since the average volume of the tumors in the control group reached over 1800 mm^3. The mice from all groups were sacrificed by cervical dislocation after which their tumors were harvested and weighed for antitumor effect assessment. Antitumor effect of treatments was evaluated measuring the tumor volume and calculating the percentage of how much the tumor volume grew in comparison to the starting tumor volume which was set arbitrarily for all tumors as 100% at the start of treatment.

OCM-1 cells = test: In vitro cytostatic effect, PrestoBlue assay; format: cell-based, human; details: Homo sapiens; OCM-1; PrestoBlue; 0.003–200 μM in serum-free medium 72 h; mean ± SEM of three independent experiments
Excerpt: as §1
(§3) The in vitro cytostatic effect of the Dau–α-MSH conjugate with optimized sequence (Conj4) was investigated and compared with Conj2 by PrestoBlue assay using human melanoma cell cultures with different origins. For determination of the cytostatic effect of the conjugates, the cells were treated with the compounds at 0.003–200 μM concentration range dissolved in the corresponding serum-free medium for 72 h. After the treatment, the PrestoBlue assay (purchased from Invitrogen (Waltham, MA, USA) was carried out to determine the IC50 values of the compounds. Based on the IC50 values, we also determined the targeting index (TI) of the conjugates using the following equation [58]: TI=IC50neg/IC50posconjugate/IC50neg/IC50posfree drug

WM983A cells = test: In vitro cytostatic effect, PrestoBlue assay; format: cell-based, human; details: Homo sapiens; WM983A; PrestoBlue; 0.003–200 μM in serum-free medium 72 h; mean ± SEM of three independent experiments
Excerpt: as §1, §3

OCM-3 cells = test: In vitro cytostatic effect, PrestoBlue assay; format: cell-based, human; details: Homo sapiens; OCM-3; PrestoBlue; 0.003–200 μM in serum-free medium 72 h; mean ± SEM of three independent experiments
Excerpt: as §1, §3

WM983B cells = test: In vitro cytostatic effect, PrestoBlue assay; format: cell-based, human; details: Homo sapiens; WM983B; PrestoBlue; 0.003–200 μM in serum-free medium 72 h; mean ± SEM of three independent experiments
Excerpt: as §1, §3

[7] = free drug 1 mg/kg i.p., group terminated on day 28

Row | Compound | Increase of animal bodyweight at the end of the experiment in comparison to the start ([6]; B16-bearing C57BL/6 mice) [%] | Tumor growth inhibition based on tumor weight, in comparison to the control group ([6]; after termination (day 20)) [%] | Animal body weight (Table S1) ([6]; free Dau 1 mg/kg) | Tumor weigh in % (Table S1) ([6]; free Dau 1 mg/kg) | Tumor volume in % (Table S1) ([6]; free Dau 1 mg/kg) | Tumor volume in mm3 (Table S1) ([6]; free Dau 1 mg/kg) | Tumor volume in percentage (start set as 100%) increased in comparison to the control group [6] [%] | IC50 [1] [nM] | Relative Potency [1] | IC50 [2] [nM] | Relative Potency [2] | IC50 [3] [nM] | Relative Potency [3] | IC50 [4] [nM] | Relative Potency [4] | other results
1 | COc1cccc2c1C(=O)c1c(O)c3c(c(O)c1C2=O)C[C@@](O)(C(C)=O)C[C@@H]3O[C@H]1C[C@H](N)[C@H](O)[C@H](C)O1 [Dau, daunomycin, reference compound] | 7.6 | 17 | +7.6% | -17.0% | +58.8% | -4.9% | 58.8 | – | – | – | – | – | – | – | – | IC50 ([1]; Homo sapiens): 50 ± 23 nM; IC50 ([2]; Homo sapiens): 119 ± 25 nM; IC50 ([3]; Homo sapiens): 40 ± 7 nM; IC50 ([4]; Mus musculus): 26 ± 8 nM; Liver weight compared to the control ([5]; OCM-1-bearing NOD-SCID mice, Conj2 5 mg/kg, Conj4 10 mg/kg, daunomycin 1 mg/kg i.p., no significant toxicity): 89.79%; Normalized liver weight, value line 1 ([5]; Table S2, single animal, line 1): 4.05%; Normalized liver weight, value line 2 ([5]; Table S2, single animal, line 2): 4.31%; Normalized liver weight, value line 4 ([5]; Table S2, single animal, line 4): 4.81%; Normalized liver weight, value line 5 ([5]; Table S2, single animal, line 5): 4.07%; Normalized liver weight, value line 6 ([5]; Table S2, single animal, line 6): 4.07%; Normalized liver weight, value line 7 ([5]; Table S2, single animal, line 7): 5.29%; Normalized liver weight, line printed as "relative to ctr" ([5]; Table S2, value line 9): 5.00%; Toxicity (general condition of mice) [5, 7]: high toxicity; Tumor inhibition compared to the controls [5, 7]: lack of tumor inhibition; Tumor growth inhibition based on tumor volume in mm^3, compared to control ([6]; end of experiment (day 20), conjugates 10 mg Dau content/kg i.p., free Dau 1 mg/kg): 4.9%; Animals died during the experiment ([6]; seven animals per group, B16-bearing C57BL/6 mice): 3 animals; IC50 (OCM-1 cells): 730 ± 60 nM; IC50 (WM983A cells): 190 ± 60 nM; IC50 (OCM-3 cells): 560 ± 50 nM; IC50 (WM983B cells): 330 ± 50 nM
2 | CCCC[C@H](NC(=O)[C@H](CO)NC(=O)[C@H](Cc1ccc(O)cc1)NC(=O)[C@H](CO)NC(=O)CON=C(C)[C@]1(O)Cc2c(O)c3c(c(O)c2[C@@H](O[C@H]2C[C@H](N)[C@H](O)[C@H](C)O2)C1)C(=O)c1c(OC)cccc1C3=O)C(=O)N[C@@H](CCC(=O)O)C(=O)N[C@@H](Cc1c[nH]cn1)C(=O)N[C@@H](Cc1ccccc1)C(=O)N[C@@H](CCCNC(=N)N)C(=O)N[C@@H](Cc1c[nH]c2ccccc12)C(=O)NCC(=O)N[C@@H](CCCCN)C(=O)N1CCC[C@H]1C(=O)N[C@H](C(N)=O)C(C)C [Conj1, Dau=Aoa-SYSNleEHFRWGKPV-NH2] | 12.9 | 2.4 | +12.9% | -2.4% | +9.7% | -23.8% | 9.7 | 9900 ± 1500 | 0.0050 | 12800 ± 1600 | 0.0093 | 9800 ± 5400 | 0.0041 | 2900 ± 600 | 0.0090 | –
3 | CCCC[C@H](NC(=O)[C@H](CO)NC(=O)[C@H](Cc1ccc(O)cc1)NC(=O)[C@H](CO)NC(=O)CON=C(C)[C@]1(O)Cc2c(O)c3c(c(O)c2[C@@H](O[C@H]2C[C@H](N)[C@H](O)[C@H](C)O2)C1)C(=O)c1c(OC)cccc1C3=O)C(=O)N[C@@H](CCC(=O)O)C(=O)N[C@@H](Cc1c[nH]cn1)C(=O)N[C@@H](Cc1ccccc1)C(=O)N[C@@H](CCCNC(=N)N)C(=O)N[C@@H](Cc1c[nH]c2ccccc12)C(=O)NCC(=O)N[C@@H](CCCCNC(=O)CON=C(C)[C@]1(O)Cc2c(O)c3c(c(O)c2[C@@H](O[C@H]2C[C@H](N)[C@H](O)[C@H](C)O2)C1)C(=O)c1c(OC)cccc1C3=O)C(=O)N1CCC[C@H]1C(=O)N[C@H](C(N)=O)C(C)C [Conj3, Dau=Aoa-SYSNleEHFRWGK(Dau=Aoa)PV-NH2] | 18.2 | – | +18.2% | +9.2% | -14.7% | +12.3% | – | 3600 ± 200 | 0.0138 | 11000 ± 800 | 0.0108 | 3000 ± 800 | 0.0133 | 2000 ± 700 | 0.0130 | Tumor weight increased in comparison to the control ([6]; after termination (day 20), 10 mg Dau content/kg i.p.): 9.2%; Average tumor volume (mm^3) higher compared to the control group ([6]; end of experiment (day 20), 10 mg Dau content/kg i.p.): 12.3%

Reference: PMC10816934, “Targeting the Melanocortin 1 Receptor in Melanoma: Biological Activity of α-MSH–Peptide Conjugates” (International Journal of Molecular Sciences, 2024)
